Data: patent publication US20250135012A1, “DENDRIMER CONJUGATES OF SMALL MOLECULE BIOLOGICS FOR INTRACELLULAR DELIVERY” (The Johns Hopkins University, priority 2021, published 2025)
Non-standard residues stand in square brackets, D forms with d. Residues, ends and D or L forms follow the SMILES beside them. Cya = N[C@@H](CS(=O)(=O)O)C(=O)O

How the values were obtained:
IL1β = test: Choroid IL1β qPCR; format: in vivo, Brown Norway rats; conditions: 7 and 14 days
Protocol: (§1) In brief, 500 μL of T-Per supplemented with PHOSSTOP® and proteinase inhibitor cocktail was added to tubes containing dissected choroid. A scoop of 1.6 mm steel homogenization beads was added to each sample and then placed in […]® LT (Qiagen) at an oscillation frequency of 50/s for 15 minutes. For qPCR, 200 μL of TRIZOL® was added to tubes containing choroid and a scoop of 1.6 mm steel homogenization beads was added. The samples were placed in […]® LT at an oscillation frequency of 50/s for 15 minutes.
(§2) 100 μL of chloroform was added to the Trizol suspension and the aqueous phase was separated with a centrifuge at 10K RPM at 4° C. for 15 minutes. 400 μL of 2-propanol was added to the aqueous solution and spun again to pellet the RNA. The RNA was washed with 70% ethanol solution, pelleted again, and re-suspended in DEPC (ultrapure treated to inactivated enzymes) water.
(§3) To convert RNA to complementary DNA, 2 μg of RNA was converted using a High-Capacity cDNA Reverse Transcription Kit (Applied Biosystems, Foster City, CA). Samples were analyzed using STEPONE PLUS® real-time PCR system (Applied Biosystems) with SYBR Green reagent (ThermoFisher Scientific). Relative expression was quantified with ΔΔCt calculations normalized to controls. Primers for GAPDH was obtained from Bio-Rad Laboratories (Hercules, CA). Primers were purchased from Integrated DNA Technologies (Coralville, IA). […]

p44/42 ERK = test: Choroid total ERK and phospho-p44/42 ERK ELISA; format: in vivo, Brown Norway rats
Protocol: as §1
To evaluate activation of FAK and ERK pathways, eyes were enucleated at set time points and the choroidal tissue dissected out. Tissues were submerged in a mixture of T-per, proteinase inhibitor, and PhosStop with stainless steel homogenization beads and homogenized to produce protein extracts. Total FAK, total ERK, p-FAK (Y397), and p-44/42 ERK ELISA kits were used to quantify the amount of total and phosphorylated proteins in FAK and ERK pathways. […] However, the level of total FAK protein in ALG-1001 treated animals was elevated at day 14.

VEGF-A [1] = test: VEGF-A expression by VEGF stimulated endothelial cells; format: cell-based, human; conditions: co-incubated with VEGF-A
Protocol: (§4) Cells were treated with D-ALG1001 and ALG-1001 for 24 h before activation with VEGF for 5 minutes. […] Cells were lysed with TRIZOL® and processed as previously described for qPCR analysis.
In addition to examining pathway activation, the effects of D-ALG and ALG-1001 were also studied on VEGF-A expression by endothelial cells.

CNV area = test: Biodistribution after systemic administration, laser CNV model; format: in vivo, Brown Norway rats; conditions: systemic (intraperitoneal) administration, 150 μg
Protocol: For biodistribution studies, a dose of Cy5-D-ALG1001-Cy3 and ALG-1001-Cy3 at 150 μg/100 μL was administered to each animal intraperitoneally on the day of CNV induction (Day 0). Animals were sacrificed at 1-, 2-, 3-, and 4-day time points and enucleated.
After fixation, the posterior segment of the eye was dissected out and the retina separated from the choroid. Tissues stained with FITC-labeled isolectin (GS IB4) (Life Technologies, Eugene, OR) for blood vessels and monocytes. Eyes were mounted by introducing four radial relaxation cuts. Samples for biodistribution were imaged under a confocal 710 microscope (Carl Zeiss, Oberkochen, Germany). Samples for CNV quantification were imaged with an Axiovert phase contrast microscope. All images were processed with ImageJ.
Fluorescently labeled Cy3-ALG-1001 peptide and dual labeled Cy5-dendrimer-ALG-Cy3 were systemically injected on day 0 (same day as CNV induction) and choroidal tissues were collected at set time points. Confocal microscopy was used to monitor the presence of ALG-1001 peptide (Cy3), dendrimer carrier (Cy5), CNV formation (Isolectin), and macrophages (Iba1). […] In comparison, D-ALG was able to not only reach the CNV area within 24 h after systemic injection but also remain in the target area up to 4 days post administration from the co-localized presence of both Cy5 and Cy3 signals.

ERK1/2 = test: Western blot, ERK1/2 phosphorylation in VEGF stimulated HUVEC; format: cell-based, human; conditions: 1 mM on a peptide basis, vs VEGF stimulated controls
Protocol: as §4
(§5) Concentration of protein was determined with the BCA protein assay kit (Thermo Scientific, Rockford, IL). Equal amount of protein was denatured and resolved on 4-15% TGX gels (Bio-Rad, Hercules, CA). Gels were transferred to nitrocellulose membranes, blocked with 3% Bovine Serum Albumin (“BSA”) at RT for 1 h, and probed for GAPDH, FAK, pFAK, MAPK, and pMAPK at 4° C. overnight. Membranes were washed thrice before incubation with HRP-conjugated secondary antibodies followed by incubation with chemiluminescent substrate for visualization.
(§6) To elucidate the mechanism through which D-ALG and ALG-1001 influence angiogenic function, cells were pre-treated with D-ALG and ALG-1001 for 24 h. The cells were then stimulated with a high dose of exogenous VEGF for 5 min after which the samples were collected for western blotting. The samples were probed for expression of total FAK, phospho-FAK (Y397), ERK1/2, phospho-ERK1/2, and Cyclophilin B (CycB) with CycB acting as the internal control.

VEGF-A [2] = test: Choroid VEGF-A qPCR; format: in vivo, Brown Norway rats; conditions: 7 and 14 days
Protocol: as §1, §2, §3

TNFα [3] = test: Choroid TNFα qPCR; format: in vivo, Brown Norway rats; conditions: 7 and 14 days
Protocol: as §1, §2, §3

TNFα [4] = test: TNFα expression in LPS stimulated RAW264.7 cells (qPCR); format: cell-based, murine; conditions: only at the highest dose
Protocol: RAW264.7 cells were seeded at a density of 1×10^5 cells per well in 12-well plates 48 h before treatment. Cells were incubated with D-ALG1001 and ALG-1001 for 24 h, the treatment media was aspirated then LPS at a concentration of 10,000 Endotoxin Units/mL was added to stimulate inflammatory response. Samples were collected 3 h after LPS stimulation for qPCR analysis.
as §2
as §3, with “IA). Primers for TNFα were:” for “IA).”

FAK = test: Western blot, FAK and phospho-FAK in VEGF stimulated HUVEC; format: cell-based, human
Protocol: as §4, §5, §6

Structure (SMILES): C[C@@H](O)[C@H](NC(=O)[C@H](CS(=O)(=O)O)NC(=O)CNC(=O)[C@H](CCCNC(=N)N)NC(=O)CN)C(=O)N1CCC[C@H]1C(=O)O [ALG-1001] (H-GRG[Cya]TP-OH; N-terminus and C-terminus assumed)
- IL1β expression (qPCR) (IL1β): only reduced at day 14
- total ERK (p44/42 ERK; day 7): remained relatively constant
- total ERK (p44/42 ERK; day 14, vs untreated animals): slight reduction
- phospho-p44/42 ERK (p44/42 ERK; rat, in vivo): decrease of p44/42 ERK production
- VEGF production compared to the control (VEGF-A [1]): did not have statistically significant increases
- time remaining in the CNV target area (CNV area): up to 2 days
- reduction of phospho-ERK1/2 (ERK1/2): ~60%
- VEGF-A production (qPCR) (VEGF-A [2]): lower VEGF-A production at 14 days only
- TNFα level (qPCR) (TNFα [3]): lower TNFα levels across both time points
- reduction of TNFα expression (TNFα [4]): 20%
- reduction of phospho-FAK (FAK; 1 mM on a peptide basis, vs VEGF stimulated controls): 20%
- total FAK and phospho-FAK expression (FAK; vs untreated VEGF stimulated controls): lower levels of total FAK and phosphor-FAK
